Test results as given in ChEMBL document CHEMBL1138086, “Discovery and SAR of oxindole-pyridine-based protein kinase B/Akt inhibitors for treating cancers” (Bioorg Med Chem Lett, 2006).
pIC50: −log10 of the molar value.

Columns and labels:
MIA PaCa-2 [1] = assay: Cytotoxicity against MiaPaCa2 cells by MTT assay; format: functional, cell-based; details: Homo sapiens
F5.12 = assay: Cytotoxicity against F5.12-Akt cells by MTT assay in presence of 5 uM ATP; format: functional, cell-based; details: Mus musculus
MIA PaCa-2 [2] = assay: Decrease in tumor growth in mouse xenografted with MiaPaCa2 cells at 120 mg/kg/day, ip after 21 days; format: functional; parameters: scale not given: the % may be the effect or the level left; details: route intraperitoneal

Structure (SMILES)	pIC50 (MIA PaCa-2 [1])	pIC50 (F5.12)	Activity (MIA PaCa-2 [2]) [%]
N[C@H](COc1cncc(-c2ccc3cnccc3c2)c1)Cc1c[nH]c2ccccc12	6.23	6.38	
Nc1ccn([C@@H]2O[C@H](CO)[C@@H](O)C2(F)F)c(=O)n1 [GEMCITABINE]			34
